What was measured:
[1] = tested on: K. pneumoniae ATCC13883; experiment: MIC by broth microdilution, K. pneumoniae; type: cell-based, Klebsiella pneumoniae; details: Klebsiella pneumoniae, ATCC13883; compound alone, MHB, 24 h at 37 °C; read-out: MIC (μg/mL) K. pneumoniae ATCC13883
Method: (§1) MIC values were evaluated following CLSI guidelines with some modifications, as referred to in previous work. Twofold dilutions 25.6–0.05 mg/mL of the tested compounds were performed in DMSO in separate 96-well microtiter U-plates (Greiner, Milan, Italy). In a different 96-well microtiter U-plate, for each well of the replicates, 49 µL of broth medium were added. Then, in each well of the plate, one microliter of each compound at variable dilution in DMSO was added. For each test, three independent experiments with three replicates each were performed. Tested reference bacterial strains (E. coli ATCC25922; S. Typhimurium ATCC14028; K. pneumoniae ATCC13883) were brought to the logarithmic phase of growth in MHB medium by incubation at 37 °C for 24 h. After incubation, bacterial suspensions were centrifuged (2000 rpm, 4 °C for 20 min), and then the pellets were resuspended in 100 mM phosphate buffer, pH 7.0, to reach a final bacterial concentration of 10^8 CFU/mL, adjusted by spectrophotometry (OD620nm ranged between 0.08–0.13). The obtained suspensions were further diluted 1:100 in broth medium to reach a bacterial concentration of 10^6 CFU/mL. Fifty µL of the bacterial suspension containing 10^6 CFU/mL were inoculated into each well within 30 min, to obtain a final concentration of 5 × 10^5 CFU/mL in a total volume of 100 µL. The final dilution range tested was 256–0.5 µg/mL. Growth and sterility controls were performed for each strain and for each tested compound. Plates were then incubated for 24 h at 37 °C in a static aerobic atmosphere. After incubation, plates were read by unaided eye with a microtiter reading mirror and then the OD of each well of the plates was measured spectrophotometrically at 620 nm. MIC values were calculated as the arithmetic mean ± standard deviation (SD) of the unaided eye reading and the inhibition of growth for each tested dilution was calculated from the OD values (mean ± SD). A quality control microorganism (E. coli ATCC 25922) was tested periodically to validate the accuracy of the procedure.

[2] = tested on: E. coli ATCC 25922; experiment: Checkerboard assay with colistin, E. coli; type: cell-based, Escherichia coli; details: for MIC Colistin E. coli: colistin in combination with compound at 8 μg/mL; for FIC Index E. coli / FIC Index interpretation E. coli: compound at 8 μg/mL with colistin; for fold reduction of MIC of colistin, E. coli: compound at 8 µg/mL, versus colistin alone
Method: (§2) Antimicrobial activity of associations between the different compounds and colistin (Sigma-Aldrich, St. Louis, MO, USA, lot n. 049M-4836 V) was tested with checkerboard assay with minor modifications, as mentioned in the previous work. For each assay, three experiments with three replicates each were assessed. For each compound tested concentration, 96-wells microtiter U-plates were prepared with twofold serial dilutions of colistin in MHB starting from the MIC value (µg/mL) for ten consecutive dilutions in 50 µL of broth. In each well of the same replicate, 1 µL of each compound in DMSO was added at a fixed concentration, 100 times higher than the final desired concentration (3.2; 1.6; 0.8 mg/mL). Subsequently, 49 µL of the bacterial suspension at a concentration of 10^6 CFU/mL, adjusted spectrophotometrically as reported above, was added to each well, reaching the final bacterial concentration of 5 × 10^5 CFU/mL. Growth and sterility controls were performed for each experiment and for each replicate. Finally, the plates were incubated at 37 °C in aerobic atmosphere for 24 h. After incubation, plates were read by unaided eye with a microtiter reading mirror and then the OD of each well of the plates was measured spectrophotometrically at 620 nm. MIC values were calculated as the arithmetic mean ± SD of the unaided eye reading and the inhibition of growth for each tested dilution was calculated from the OD values (mean ± SD).
(§3) To evaluate the antimicrobial effect of the two molecules in association, the FIC index was calculated as follows. The MICs of each of the two molecules tested individually and in combination with each other were evaluated and the results have been included in the following formula as reported by Meletiadis et al.: FIC=MICA in combination/MICA+MICB in combination/MICB where MICA was the MIC of the compound UPAR415 and MICA in combination was the MIC of UPAR415 in combination with colistin. MICB was the MIC of colistin and MICB in combination was the MIC of colistin in combination with UPAR415. From the results of the FIC index formula, the antimicrobial activity in combination of the two molecules can be considered: synergistic, additive, indifferent of antagonistic. If the FIC index is ≤ 0.5, the association is synergic; additive if FIC is between 0.5 and 1; indifferent if FIC is between 1 and 4; and antagonistic if FIC is ≥4 [50].
(§4) Statistical analysis of checkerboard results in comparison with MIC values of colistin alone was performed using the Analysis of Variance (ANOVA) test.

[3] = tested on: S. Typhimurium ATCC14028; experiment: MIC by broth microdilution, S. Typhimurium; type: cell-based, Salmonella enterica serovar Typhimurium; details: Salmonella enterica; compound alone, MHB, 24 h at 37 °C; read-out: MIC (μg/mL) S. Typhimurium ATCC14028
Method: as §1

[4] = tested on: E. coli ATCC 25922; experiment: MIC by broth microdilution, E. coli; type: cell-based, Escherichia coli; details: Escherichia coli, ATCC25922; compound alone, MHB, 24 h at 37 °C; read-out: MIC (μg/mL) E.coli ATCC 25922
Method: as §1

[5] = tested on: S. Typhimurium ATCC14028; experiment: Checkerboard assay with colistin, S. Typhimurium; type: cell-based, Salmonella enterica serovar Typhimurium; details: for MIC: Salmonella enterica, colistin in combination with compound at 8 μg/mL; for fold reduction with respect to the MIC of colistin alone, S. Typhimurium: compound at 8 µg/mL
Method: as §2, §3, §4

[6] = tested on: K. pneumoniae ATCC13883; experiment: Checkerboard assay with colistin, K. pneumoniae; type: cell-based, Klebsiella pneumoniae; details: for reduction of the MIC of colistin, K. pneumoniae: association of colistin with compound; for MIC Colistin K. pneumoniae: colistin in combination with compound at 8 μg/mL
Method: as §2, §3, §4

[7] = compound at 8 μg/mL with colistin

## Cc1ccc(CC2(C(=O)O)CC2c2cccc(N3CC(C)OC(C)C3)c2)cc1 (stereo not drawn) [Compound 13h, trans-2-(3-(2,6-dimethylmorpholino)phenyl)-1-(4-methylbenzyl)cyclopropanecarboxylic acid]
[1]
  MIC: > 512 µg/mL
[2]
  MIC Colistin E. coli: 0.18 ± 0.06 µg/mL
  FIC Index E. coli: 0.48
  FIC Index interpretation E. coli: synergy (If the FIC index is ≤ 0.5, the association is synergic)
  fold reduction of MIC of colistin, E. coli: 3 fold
[3]
  MIC: > 512 µg/mL
[4]
  MIC: > 512 µg/mL
[5]
  MIC: 0.468 ± 0.01 µg/mL
  fold reduction with respect to the MIC of colistin alone, S. Typhimurium: 2 fold
[5]; [7]
  FIC Index S. Typhimurium: 0.90
[6]
  reduction of the MIC of colistin, K. pneumoniae: has not led to a reduction of the MIC of colistin
  MIC Colistin K. pneumoniae: 3.33 ± 1.0 µg/mL
[6]; [7]
  FIC Index K. pneumoniae: 0.85
[6]; compound at 32 and 16 µg/mL
  effect on MIC of colistin, K. pneumoniae: only a slight effect

## CCOC(=O)C1(Cc2ccc(C)cc2)CC1c1cccc(N2CC(C)OC(C)C2)c1 (stereo not drawn) [Compound 12h, trans-ethyl 2-(3-(2,6-dimethylmorpholino)phenyl)-1-(4-methylbenzyl)cyclopropanecarboxylate]
[1]
  MIC: > 512 µg/mL
[2]
  MIC Colistin E. coli: 0.122 ± 0.08 µg/mL
  FIC Index E. coli: 0.33
  FIC Index interpretation E. coli: synergy (If the FIC index is ≤ 0.5, the association is synergic)
  fold reduction of MIC of colistin, E. coli: 2 fold
[3]
  MIC: > 512 µg/mL
[4]
  MIC: > 512 µg/mL
[5]
  MIC: 0.101 ± 0.07 µg/mL
  fold reduction with respect to the MIC of colistin alone, S. Typhimurium: 5 fold
[5]; colistin in combination with 12h at 32 μg/mL, S. Typhimurium ATCC14028 (wild type)
  MIC Colistin: 0.125 ± 0.08 µg/mL
[5]; [7]
  FIC Index S. Typhimurium: 0.21
  FIC Index interpretation S. Typhimurium: synergy (If the FIC index is ≤ 0.5, the association is synergic)
[6]
  reduction of the MIC of colistin, K. pneumoniae: has not led to a reduction of the MIC of colistin
  MIC Colistin K. pneumoniae: 8.00 ± 0.0 µg/mL
[6]; [7]
  FIC Index K. pneumoniae: 2.01
  FIC Index interpretation K. pneumoniae: indifference (indifferent if FIC is between 1 and 4)

Source: publication PMC9227781, “Inhibitors of O-Acetylserine Sulfhydrylase with a Cyclopropane-Carboxylic Acid Scaffold Are Effective Colistin Adjuvants in Gram Negative Bacteria” (Pharmaceuticals, 2022)
